pIC50: −log10 of the molar value.
Experiments:
[1] = system: TNFα release from human monocytic cell line U937; test: inhibition of PMA-stimulated TNFα release from U937 cells (ELISA); assay type: cell-based; conditions: U-937, PMA 50 nM, 18 hours, 37° C., read-out: IC50, concentration which inhibits the release of TNFα by 50% relative to control culture
Protocol: The ability of example compounds of the invention to inhibit the release of TNF was investigated. The assay is based on the ability of phorbol myristate acetate (PMA) to stimulate the release of TNF a from a human monocytic cell line, U937.
U937 cells cultured in RPMI 1640 medium+5% foetal calf serum are centifuged at 1000×g for 5 minutes and then resuspended in medium at 2×10^6 /ml. 1 ml of cell suspension is aliquoted into individual wells of 24-well plates. Test compounds are dissolved in dimethyl sulphoxide (DMSO) at a stock concentration of 100 mM, then diluted to 50× the final required concentration with RPMI 1640 medium. 20 μl of the diluted compounds are added to U937 cells in duplicate wells. TNF a release is stimulated by addition of PMA to the cells at a final concentration of 50 nM. Appropriate control cultures are set up in duplicate. The plates are incubated for 18 hours at 37° C., 5% CO2, then centrifuged at 1000×g for 5 minutes. A specific ELISA for TNFα obtained from British Bio-technology Products Limited, Abingdon, England is used to measure TNFα levels in the culture supernatants
The average concentration of test compound which inhibits the release of TNF a by 50% relative to the control culture was assessed.

stromelysin = stromelysin (Homo sapiens, UniProt P08254); test: stromelysin inhibition, 14C acetylated casein, procedure of Cawston et al; assay type: biochemical; conditions: 37°, 16 hours, pH 7.5
Protocol: The potency of compounds of Examples 1 to 6 to act as inhibitors of stromelysin was determined by the procedure of Cawston et al, (Biochem. J., 195, 159-165, 1981), hereby incorporated by reference, whereby a 1 mM solution of the compound being tested, or a dilution thereof, was incubated at 37° for 16 hours with stromelysin and ^14 C acetylate casein (buffered with 25 mM Hepes, pH 7.5 containing 5 mM CaCl2, 0.05% Brij 35 and 0.02% NaN3). The casein was acetylated ^14 C casein prepared by the method of Cawston et al (ibid).

collagenase = target: T1, collagenase (Homo sapiens, UniProt P03956); test: collagenase inhibition, 14C collagen, procedure of Cawston and Barrett; assay type: biochemical; conditions: 37°, 16 hours, pH 7.5
T1 sequence (P03956 100-469): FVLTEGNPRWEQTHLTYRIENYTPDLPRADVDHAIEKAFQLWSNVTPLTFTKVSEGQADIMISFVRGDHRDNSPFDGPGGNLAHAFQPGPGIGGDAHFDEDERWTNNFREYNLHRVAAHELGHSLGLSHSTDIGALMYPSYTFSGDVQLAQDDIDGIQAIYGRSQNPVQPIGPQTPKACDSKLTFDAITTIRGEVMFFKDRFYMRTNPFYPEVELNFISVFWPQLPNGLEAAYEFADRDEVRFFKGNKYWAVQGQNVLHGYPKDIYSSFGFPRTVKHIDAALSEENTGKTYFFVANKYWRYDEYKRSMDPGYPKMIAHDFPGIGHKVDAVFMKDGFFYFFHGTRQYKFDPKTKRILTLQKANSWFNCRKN
From the text: The collagen was acetylated ^14 C collagen prepared by the method of Cawston and Murphy, (Methods in Enzymology, 80, 711, 1981), hereby incorporated by reference. The samples were centrifuged to sediment undigested collagen, and an aliquot of the radioactive supernatant removed for assay on a scintillation counter as a measure of hydrolysis.

TNF = test: inhibition of endotoxin (LPS) induced TNF production in vivo, serum TNF in anaesthetised rats; set-up: species or system male CD rats; conditions: rat, 10 mg/kg intravenous 15 minutes prior to LPS 50 μg/kg, infusion maintained 2 hours
Protocol: The compound of Example 1 was assessed for its ability to inhibit release of endotoxin induced TNF production in vivo.
Male Male CD rats (Charles River, UK) weighing between 300 g-400 g were anaesthetised with an intra-peritoneal injection of a mixture of 62.5 mg·kg^-1 thiopental and 22.5 mg·kg^-1 sodium pentobarbitone (Thiopental, Sigma Chemical Co., UK; Sodium pentobarbitone (Sagatal), May and Baker., UK). The trachea was exposed and cannulated to allow spontaneous respiration through a patent airway. The left jugular vein was exposed and cannulated for the administration of LPS. The right femoral artery was exposed and cannulated for withdrawal of blood samples.
Blood samples (1 ml) were removed just prior to bolus administration of either LPS (E. coli serotype 0111:b4, Difco Laboratories, USA) or saline (NaCL 0.9% w/v) and at intervals of 1 hour and 2 hours after LPS. Removed blood was replaced with equal amounts of saline.
The peak of TNF release was at the 1 hour timepoint. […] levels were expressed in units/ml where 1 unit is the equivalent of 1 pg of mouse TNFα.
Rat serum TNF levels were measured using a mouse TNFα reference standard. The commercial ELISA kits were from Genzyme.
The compound of example 1 was administered intravenously to aneasthetised rats at a dose of 10 mg·kg^-1, 15 minutes prior to LPS administration. […]

stromelysin, sequence (P08254 100-477): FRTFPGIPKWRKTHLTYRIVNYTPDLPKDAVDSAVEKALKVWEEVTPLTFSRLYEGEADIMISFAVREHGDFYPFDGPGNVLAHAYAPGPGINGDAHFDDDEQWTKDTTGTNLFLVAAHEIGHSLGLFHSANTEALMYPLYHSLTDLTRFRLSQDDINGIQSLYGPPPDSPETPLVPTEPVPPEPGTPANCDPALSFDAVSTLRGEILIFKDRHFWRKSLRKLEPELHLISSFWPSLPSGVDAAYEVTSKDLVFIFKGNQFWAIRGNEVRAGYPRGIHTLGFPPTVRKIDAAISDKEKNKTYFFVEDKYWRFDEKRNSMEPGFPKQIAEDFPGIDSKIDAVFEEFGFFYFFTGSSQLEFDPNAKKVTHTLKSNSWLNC

| Structure (SMILES) | pIC50 [1] | pIC50 (stromelysin) | pIC50 (collagenase) | reduction of LPS-induced release of TNF, 1 hour timepoint (TNF; 1 hour after LPS) | reduction of LPS-induced release of TNF, 2 hour timepoint (TNF; 2 hours after LPS) |
| --- | --- | --- | --- | --- | --- |
| CNC(=O)CC[C@H](NC(=O)[C@H](CC(C)C)[C@H](CSc1ccc(O)cc1)C(=O)NO)C(=O)NC [Example 6, N^2-[4-(N-Hydroxyamino)-3S-(4-hydroxyphenylthiomethyl)-2R-isobutylsuccinyl]-L-glutamine-N^1,N^5-dimethylamide] | > 4.30 | 7.15 | 8.22 |  |  |
| CNC(=O)[C@H](CCCCNC(C)=O)NC(=O)[C@H](CC(C)C)[C@H](CSc1ccc(O)cc1)C(=O)NO [Example 1, N^2-[4-(N-Hydroxyamino)-3S-(4-hydroxyphenylthiomethyl)-2R-isobutylsuccinyl]-N^6-acetyl-L-lysine-N^1-methylamide] | > 4.30 |  |  | more than 50% | more than 50% |
| CNC(=O)[C@@H](NC(=O)[C@H](CC(C)C)[C@H](CSc1ccc(O)cc1)C(=O)NO)[C@@H](C)OC(C)(C)C [Example 5, N^2-[4-(N-Hydroxyamino)-3S-(4-hydroxyphenylthiomethyl)-2R-isobutylsuccinyl]-O-tert-butyl-L-threonine-N^1-methylamide] |  | 7.40 | 8.30 |  |  |
| CNC(=O)[C@H](CCCCN(CSc1ccc(O)cc1)C(=O)OC(C)(C)C)NC(=O)[C@H](CC(C)C)[C@H](CSc1ccc(O)cc1)C(=O)NO [Example 3, N^2-[4-(N-Hydroxyamino)-3S-(4-hydroxyphenylthiomethyl)-2R-isobutylsuccinyl]-N^6-tert-butyloxycarbonyl-N^6-(4-hydroxyphenylthiomethyl)-L-lysine-N^1-methylamide] | > 4.30 | 7.30 | 7.52 |  |  |
| CNC(=O)[C@H](CCCCNC(=O)OC(C)(C)C)NC(=O)[C@H](CC(C)C)[C@H](CSc1ccc(O)cc1)C(=O)NO [Example 2, N^2-[4-(N-Hydroxyamino)-3S-(4-hydroxyphenylthiomethyl)-2R-isobutylsuccinyl]-N^6-tert-butyloxycarbonyl-L-lysine-N^1-methylamide] | > 4.30 | 7.82 | 7.82 |  |  |
| CNC(=O)[C@H](CCCCNC(=O)OC(C)(C)C)NC(=O)[C@H](CC(C)C)[C@H](CSc1cccs1)C(=O)NO [Example 4, N^2-[4-(N-Hydroxyamino)-3S-(2-thienythiomethyl)-2R-isobutylsuccinyl]-N^6-tert-butyloxycarbonyl-L-lysine-N^1-methylamide] | > 4.30 | 7.70 |  |  |  |

Reference: patent publication US5821262A, “Hydroxamic acid derivatives as inhibitors of cytokine production” (British Biotech Pharmaceuticals Limited, priority 1993, dated 1998)
